Data on 25 compounds can be found in US20200392158A1, “INHIBITORS OF LEUCINE RICH REPEAT KINASE 2” (GLAXOSMITHKLINE INTELLECTUAL PROPERTY DEVELOPMENT LIMITED, priority 2017, published 2020).

Some results are limits rather than exact numbers.

Assay [1] addresses T1, full length G2019 human LRRK2 (Homo sapiens, UniProt Q5S007, R50H).
T1 construct: made in house; host or cells: HEK293 6E cells transduced with BacMam virus (virus generated in Sf9 cells)
The assay is described as follows: Full length G2019 human LRRK2 inhibition mass spectrometry assay. Particulars: LRRKtide to phospho-LRRKtide conversion, RapidFire MS, 2 mM ATP. The class given is biochemical. In short, it runs like this:
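Inhibition taken as reduced LRRKtide phosphorylation, quantified by RapidFire-coupled triple-quadrupole MS as product/(product+substrate) peak area. Reaction: 2 mM ATP, 25 μM peptide, ~25 nM full-length G2019 Flag-LRRK2, Hepes pH 7.2 buffer, room temperature for 1 h. 11-point 1-in-4 dilutions from 100 μM; logistic fit gives IC50, reported as pIC50.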

Assay [2] addresses T2, LRRK2 kinase in SH-SY5Y cells over-expressing recombinant full length LRRK2 (Homo sapiens, UniProt Q5S007).
T2 construct: A BacMam virus expressing full length recombinant LRRK2 was purchased from Invitrogen; host or cells: SH-SY5Y human neuroblastoma cells transduced with BacMam LRRK2 virus
Description: Recombinant cellular LRRK2 AlphaScreen assay (LRRK2 Ser935 phosphorylation). Particulars: 60 min. The class given is cell-based. In short, it runs like this:
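Read-out is AlphaScreen of LRRK2 pSer935 over total LRRK2 in lysates of SH-SY5Y cells over-expressing full-length LRRK2 via BacMam (24 h transduction). Cells were exposed 60 min at 37 °C to an 11-point 1-in-4 dilution series starting at 10 uM; sigmoidal fit.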

T1 sequence (Q5S007 with tags, fused parts or gaps R50H): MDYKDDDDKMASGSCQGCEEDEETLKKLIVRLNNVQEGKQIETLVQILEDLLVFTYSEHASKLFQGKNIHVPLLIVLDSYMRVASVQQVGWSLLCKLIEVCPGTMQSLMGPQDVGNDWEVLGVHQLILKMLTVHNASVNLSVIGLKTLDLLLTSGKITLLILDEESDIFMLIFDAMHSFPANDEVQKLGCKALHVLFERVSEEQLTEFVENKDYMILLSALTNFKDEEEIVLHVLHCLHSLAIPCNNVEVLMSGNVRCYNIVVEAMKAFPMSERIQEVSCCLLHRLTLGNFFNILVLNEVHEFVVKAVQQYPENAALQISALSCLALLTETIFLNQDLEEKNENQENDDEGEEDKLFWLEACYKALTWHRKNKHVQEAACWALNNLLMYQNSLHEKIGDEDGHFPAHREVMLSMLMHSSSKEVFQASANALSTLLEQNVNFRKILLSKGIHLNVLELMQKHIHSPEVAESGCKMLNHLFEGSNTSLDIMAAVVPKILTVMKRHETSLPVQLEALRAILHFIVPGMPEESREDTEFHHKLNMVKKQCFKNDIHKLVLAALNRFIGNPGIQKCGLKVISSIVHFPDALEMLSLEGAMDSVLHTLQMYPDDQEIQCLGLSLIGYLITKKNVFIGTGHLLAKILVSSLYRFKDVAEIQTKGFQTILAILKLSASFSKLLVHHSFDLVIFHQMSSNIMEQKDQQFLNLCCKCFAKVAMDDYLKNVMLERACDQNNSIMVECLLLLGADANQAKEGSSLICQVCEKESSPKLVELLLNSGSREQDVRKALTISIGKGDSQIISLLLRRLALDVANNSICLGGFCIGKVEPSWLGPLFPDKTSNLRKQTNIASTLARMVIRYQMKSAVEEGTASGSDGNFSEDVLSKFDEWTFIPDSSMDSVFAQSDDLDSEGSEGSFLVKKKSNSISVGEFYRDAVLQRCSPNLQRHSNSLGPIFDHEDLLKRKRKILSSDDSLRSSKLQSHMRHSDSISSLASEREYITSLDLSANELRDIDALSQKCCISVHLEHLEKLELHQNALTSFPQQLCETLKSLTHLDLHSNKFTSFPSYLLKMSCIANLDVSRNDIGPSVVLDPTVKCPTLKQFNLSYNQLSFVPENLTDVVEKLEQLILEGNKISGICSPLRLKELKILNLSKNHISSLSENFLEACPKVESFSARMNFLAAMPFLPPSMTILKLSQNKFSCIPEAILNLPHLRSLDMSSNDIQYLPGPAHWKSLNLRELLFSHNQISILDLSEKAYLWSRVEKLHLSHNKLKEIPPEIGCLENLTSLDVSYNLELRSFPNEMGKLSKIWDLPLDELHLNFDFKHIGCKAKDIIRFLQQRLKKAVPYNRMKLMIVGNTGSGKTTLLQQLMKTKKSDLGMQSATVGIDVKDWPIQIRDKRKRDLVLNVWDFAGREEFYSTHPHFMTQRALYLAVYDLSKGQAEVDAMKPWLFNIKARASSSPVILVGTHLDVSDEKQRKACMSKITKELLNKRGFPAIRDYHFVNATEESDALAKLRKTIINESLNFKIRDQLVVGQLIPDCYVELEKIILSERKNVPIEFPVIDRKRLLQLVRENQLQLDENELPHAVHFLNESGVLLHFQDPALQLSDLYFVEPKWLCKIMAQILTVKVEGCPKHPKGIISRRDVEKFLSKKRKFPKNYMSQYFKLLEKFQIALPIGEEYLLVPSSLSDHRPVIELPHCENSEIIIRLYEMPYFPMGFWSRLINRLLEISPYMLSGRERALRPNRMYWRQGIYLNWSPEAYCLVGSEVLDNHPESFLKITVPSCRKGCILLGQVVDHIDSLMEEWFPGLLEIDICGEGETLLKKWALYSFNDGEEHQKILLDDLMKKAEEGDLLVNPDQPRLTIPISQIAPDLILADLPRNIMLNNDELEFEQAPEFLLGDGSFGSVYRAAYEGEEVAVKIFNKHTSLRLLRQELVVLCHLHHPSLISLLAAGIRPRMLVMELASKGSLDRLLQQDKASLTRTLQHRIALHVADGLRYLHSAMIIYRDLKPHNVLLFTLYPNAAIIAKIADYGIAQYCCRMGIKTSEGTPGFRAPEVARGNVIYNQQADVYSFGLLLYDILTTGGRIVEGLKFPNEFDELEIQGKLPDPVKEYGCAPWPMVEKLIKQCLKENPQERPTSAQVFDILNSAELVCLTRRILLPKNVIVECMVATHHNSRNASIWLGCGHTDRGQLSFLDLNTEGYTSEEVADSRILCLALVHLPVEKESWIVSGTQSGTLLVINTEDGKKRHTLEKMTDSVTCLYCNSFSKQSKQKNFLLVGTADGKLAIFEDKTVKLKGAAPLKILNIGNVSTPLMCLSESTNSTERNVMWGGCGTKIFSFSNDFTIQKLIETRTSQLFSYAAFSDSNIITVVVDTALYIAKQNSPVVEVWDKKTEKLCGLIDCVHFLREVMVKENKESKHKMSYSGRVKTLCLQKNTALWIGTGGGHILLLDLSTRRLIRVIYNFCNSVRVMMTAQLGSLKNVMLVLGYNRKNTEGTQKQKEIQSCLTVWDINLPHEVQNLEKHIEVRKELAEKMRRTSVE
T2 sequence (Q5S007 whole entry): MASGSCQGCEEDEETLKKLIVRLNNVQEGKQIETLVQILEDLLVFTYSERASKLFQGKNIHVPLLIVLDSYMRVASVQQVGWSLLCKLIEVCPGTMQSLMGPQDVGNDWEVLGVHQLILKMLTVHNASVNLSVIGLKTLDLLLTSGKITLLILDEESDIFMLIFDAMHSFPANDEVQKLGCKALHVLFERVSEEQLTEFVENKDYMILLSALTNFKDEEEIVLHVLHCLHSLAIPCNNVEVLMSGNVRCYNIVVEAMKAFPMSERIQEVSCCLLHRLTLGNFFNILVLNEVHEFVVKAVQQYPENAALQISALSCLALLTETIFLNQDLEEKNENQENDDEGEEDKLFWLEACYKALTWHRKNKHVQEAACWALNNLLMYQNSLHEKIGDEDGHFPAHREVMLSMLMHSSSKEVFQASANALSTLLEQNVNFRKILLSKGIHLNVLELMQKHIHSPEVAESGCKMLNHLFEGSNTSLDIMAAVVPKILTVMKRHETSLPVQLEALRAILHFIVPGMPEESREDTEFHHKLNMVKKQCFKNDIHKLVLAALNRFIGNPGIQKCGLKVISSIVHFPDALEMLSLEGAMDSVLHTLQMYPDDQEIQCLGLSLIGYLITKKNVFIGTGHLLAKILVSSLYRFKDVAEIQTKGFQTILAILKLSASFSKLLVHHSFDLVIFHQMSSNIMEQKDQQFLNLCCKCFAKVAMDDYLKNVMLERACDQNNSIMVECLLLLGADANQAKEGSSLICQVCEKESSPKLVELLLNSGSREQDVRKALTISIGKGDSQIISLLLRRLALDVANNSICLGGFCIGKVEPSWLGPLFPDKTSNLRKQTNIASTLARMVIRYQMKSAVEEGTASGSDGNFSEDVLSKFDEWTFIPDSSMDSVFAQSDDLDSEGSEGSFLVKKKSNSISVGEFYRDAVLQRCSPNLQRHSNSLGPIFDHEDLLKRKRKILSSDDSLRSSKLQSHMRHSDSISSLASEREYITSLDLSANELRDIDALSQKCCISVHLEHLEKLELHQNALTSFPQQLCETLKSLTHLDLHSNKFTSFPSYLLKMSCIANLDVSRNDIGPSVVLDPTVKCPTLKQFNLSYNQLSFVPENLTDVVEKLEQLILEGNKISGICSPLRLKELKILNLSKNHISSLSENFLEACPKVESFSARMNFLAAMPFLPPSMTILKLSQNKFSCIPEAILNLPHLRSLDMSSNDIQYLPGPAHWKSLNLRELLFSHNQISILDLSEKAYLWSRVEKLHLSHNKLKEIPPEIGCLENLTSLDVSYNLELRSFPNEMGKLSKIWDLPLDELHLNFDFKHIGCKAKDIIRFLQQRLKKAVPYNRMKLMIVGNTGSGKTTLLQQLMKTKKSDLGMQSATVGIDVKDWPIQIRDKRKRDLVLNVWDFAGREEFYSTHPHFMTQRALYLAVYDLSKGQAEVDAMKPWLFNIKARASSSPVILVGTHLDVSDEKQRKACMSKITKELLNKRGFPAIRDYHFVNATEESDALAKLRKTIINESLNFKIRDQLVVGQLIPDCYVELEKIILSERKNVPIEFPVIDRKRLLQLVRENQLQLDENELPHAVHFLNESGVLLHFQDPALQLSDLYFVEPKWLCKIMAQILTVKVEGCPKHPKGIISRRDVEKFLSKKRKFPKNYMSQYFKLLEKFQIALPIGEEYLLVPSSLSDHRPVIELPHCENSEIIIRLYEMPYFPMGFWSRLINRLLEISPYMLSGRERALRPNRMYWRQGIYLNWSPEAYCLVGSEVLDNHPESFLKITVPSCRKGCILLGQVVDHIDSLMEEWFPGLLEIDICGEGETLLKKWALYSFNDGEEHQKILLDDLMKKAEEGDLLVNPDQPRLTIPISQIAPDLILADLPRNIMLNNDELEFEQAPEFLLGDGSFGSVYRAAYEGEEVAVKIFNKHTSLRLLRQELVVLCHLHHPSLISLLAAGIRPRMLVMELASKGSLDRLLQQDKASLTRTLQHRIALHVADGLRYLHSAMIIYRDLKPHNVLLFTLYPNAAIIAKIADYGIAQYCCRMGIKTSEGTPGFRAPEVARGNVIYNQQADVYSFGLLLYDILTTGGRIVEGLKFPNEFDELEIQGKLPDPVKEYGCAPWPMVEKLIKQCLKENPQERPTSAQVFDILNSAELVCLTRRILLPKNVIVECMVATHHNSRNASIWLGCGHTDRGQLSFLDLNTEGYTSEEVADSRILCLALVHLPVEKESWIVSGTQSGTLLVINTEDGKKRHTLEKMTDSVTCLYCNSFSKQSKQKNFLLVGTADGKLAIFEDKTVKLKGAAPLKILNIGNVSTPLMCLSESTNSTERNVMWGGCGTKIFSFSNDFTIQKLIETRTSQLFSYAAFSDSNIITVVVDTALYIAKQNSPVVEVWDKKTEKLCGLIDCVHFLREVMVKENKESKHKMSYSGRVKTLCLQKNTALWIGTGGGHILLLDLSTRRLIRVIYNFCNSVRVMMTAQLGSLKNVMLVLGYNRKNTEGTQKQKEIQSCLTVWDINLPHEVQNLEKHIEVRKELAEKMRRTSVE

Consider `Cc1c2c(nn1C1CCC(O)CC1)OCCCNc1nc(ncc1Cl)N2` (single isomer, unassigned) [E90, 4-{14-chloro-4-methyl-8-oxa-2,5,6,12,16,17-hexaazatricyclo[11.3.1.0^3,7]heptadeca-1(16),3,6,13(17),14-pentaen-5-yl}cyclohexan-1-ol], for which the IC50 in assay [1] and in assay [2] was ≤ 100 nM throughout.
In the case of `Cc1c2c(nn1CCN1CCC(F)(F)C1)OCCC(C)Nc1nc(ncc1Cl)N2` (single isomer, unassigned) [E215, 14-Chloro-5-[2-(3,3-difluoropyrrolidin-1-yl)ethyl]-4,11-dimethyl-8-oxa-2,5,6,12,16,17-hexaazatricyclo [11.3.1.0^3,7]heptadeca-1(16),3,6,13(17),14-pentaene], the 50% inhibitory concentration (IC50) in assay [1] and in assay [2] was ≤ 100 nM each time.
Turning to `COC1CNc2nc(ncc2Cl)Nc2c(nn(C3CC4CCC(C3)O4)c2C)OC1` (single isomer, unassigned) [E245, 14-Chloro-10-methoxy-4-methyl-5-{8-oxabicyclo[3.2.1]octan-3-yl}-8-oxa-2,5,6,12,16,17-hexaazatricyclo [11.3.1.0^3,7]heptadeca-1(16),3,6,13(17),14-pentaene], the IC50 in assay [1] and in assay [2] was ≤ 100 nM throughout.
Take `C=Cc1cnc2nc1N[C@H](C)CCOc1nn(C3CCOCC3)c(C)c1N2` [E389, (11R)-14-Ethenyl-4,11-dimethyl-5-(oxan-4-yl)-8-oxa-2,5,6,12,16,17-hexaazatricyclo[11.3.1.0^3,7]heptadeca-1(16)53,6,13(17),14-pentaene]: the IC50 in assay [1] and in assay [2] was ≤ 100 nM each time.
On to `Cc1c2c(nn1C1CCOCC1(C)C)OCC[C@@H](C)Nc1nc(ncc1Cl)N2` (single isomer, unassigned) [E422], for which the IC50 in assay [1] and in assay [2] was ≤ 100 nM each time.
As for `CCC1CCOc2nn(C3CCOCC3)c(C)c2Nc2ncc(Cl)c(n2)N1` (single isomer, unassigned) [E20, 14-chloro-11-ethyl-4-methyl-5-(oxan-4-yl)-8-oxa-2,5,6,12,16,17-hexaazatricyclo[11.3.1.0^3,7]heptadeca-1(16),3,6,13(17),14-pentaene], the half-maximal inhibitory concentration (IC50) in assay [1] and in assay [2] was ≤ 100 nM in each case.
As to `Cc1c2c(nn1C1COCCC1(F)F)OCCCNc1nc(ncc1Cl)N2` (single isomer, unassigned) [E302, 14-Chloro-5-(4,4-difluorooxan-3-yl)-4-methyl-8-oxa-2,5,6,12,16,17-hexaazatricyclo[11.3.1.0^3,7]heptadeca-1(16),3,6,13(17),14-pentaene], the IC50 in assay [1] and in assay [2] was ≤ 100 nM in each case.
For `C=C(C)c1cnc2nc1NCCCOc1nn(C3CCOCC3)c(C)c1N2` [E429, 4-Methyl-5-(oxan-4-yl)-14-(prop-1-en-2-yl)-8-oxa-2,5,6,12,16,17-hexaazatricyclo[11.3.1.0^3,7]heptadeca-1(16),3,6,13(17),14-pentaene], the IC50 is ≤ 10000 nM in assay [1] and > 10000 nM in assay [2].
Taken in the same sequence, the figures for `Cc1c2c(nn1C1CN(C3COC3)C1)OCC[C@@H](C)Nc1nc(ncc1Cl)N2` [E107, (11R)-14-chloro-4,11-dimethyl-5-[1-(oxetan-3-yl)azetidin-3-yl]-8-oxa-2,5,6,12,16,17-hexaazatricyclo[11.3.1.0^3,7]heptadeca-1(16),3,6,13(17),14-pentaene] were ≤ 100 nM and ≤ 100 nM.
Taken in the same sequence, the figures for `Cc1c2c(nn1C1CCOCC1)OCCCOc1nc(ncc1Cl)N2` [E110, 14-Chloro-4-methyl-5-(oxan-4-yl)-8,12-dioxa-2,5,6,16,17-pentaazatricyclo[11.3.1.0^3,7]heptadeca-1(16),3,6,13(17),14-pentaene] were ≤ 100 nM and ≤ 100 nM.
Taken in the same sequence, the figures for `Cc1c2c(nn1C1CC(N3CCOCC3)C1)OCCCNc1nc(ncc1Cl)N2` (centres unmarked) [E45, 14-Chloro-4-methyl-5-[3-(morpholin-4-yl)cyclobutyl]-8-oxa-2,5,6,12,16,17-hexaaza tricyclo[11.3.1.0^3,7]heptadeca-1(16),3,6,13(17),14-pentaene] were ≤ 100 nM and ≤ 100 nM.
On to `Cc1c2c(nn1C1CN(C3CCCOC3)C1)OCC[C@@H](C)Nc1nc(ncc1Cl)N2` (stereo partly drawn) [E385, (11R)-14-Chloro-4,11-dimethyl-5[1-(oxan-3-yl)azetidin-3-yl]-8-oxa-2,5,6,12,16,17-hexaazatricyclo[11.3.1.0^3,7]heptadeca-1(16),3,6,13(17),14-pentaene], for which the IC50 in assay [1] and in assay [2] was ≤ 100 nM throughout.
`Cc1c2c(nn1C1CC(O)C1)OCC[C@@H](C)N(C)c1nc(ncc1Cl)N2` (stereo partly drawn) [E376, 3-[(11R)-14-Chloro-4,11,12-trimethyl-8-oxa-2,5,6,12,16,17-hexaazatricyclo[11.3.1.0^3,7]heptadeca-1(16),3,6,13(17),14-pentaen-5-yl] cyclobutan-1-ol]: the IC50 in assay [1] and in assay [2] was ≤ 100 nM in each case.
Turning to `Cc1c2c(nn1C1CCOCC1)OCCC(C(F)F)Nc1nc(ncc1Cl)N2` (single isomer, unassigned) [E88, 14-chloro-11-(difluoromethyl)-4-methyl-5-(oxan-4-yl)-8-oxa-2,5,6, 12,16,17-hexaazatricyclo[11.3.1.0^3,7]heptadeca-1(16),3,6,13(17),14-pentaene], the IC50 in assay [1] and in assay [2] was ≤ 100 nM in each case.
For `COC1CNc2nc(ncc2Cl)Nc2c(nn(C3CCOCC3F)c2C)OC1` (single isomer, unassigned) [E70, 14-Chloro-5-(3-fluorooxan-4-yl)-10-methoxy-4-methyl-8-oxa-2,5,6,12,16,17-hexaaza tricyclo[11.3.1.0^3,7]heptadeca-1(16),3,6,13(17),14-pentaene], the IC50 in assay [1] and in assay [2] was ≤ 100 nM throughout.
For the compound `Cc1c2c(nn1CCN1C[C@@H]3C[C@H]1CO3)OCCCNc1nc(ncc1Cl)N2` (stereo in doubt) [E221, 14-Chloro-4-methyl-5-{2-[(1S,4S)-2-oxa-5-azabicyclo[2.2.1]heptan-5-yl]ethyl}-8-oxa-2,5,6,12,16,17-hexaazatricyclo [11.3.1.0^3,7]heptadeca-1(16),3,6,13(17),14-pentaene], the IC50 in assay [1] and in assay [2] was ≤ 100 nM each time.
Turning to `FC(F)c1c2c(nn1C1CCOCC1)OCCCNc1nc(ncc1Cl)N2` [E112, 4-Chloro-4-(difluoromethyl)-5-(oxan-4-yl)-8-oxa-2,5,6,12,16,17-hexaazatricyclo[11.3.1.0^3,7]heptadeca-1(16),3,6,13(17),14-pentaene], the IC50 in assay [1] and in assay [2] was ≤ 100 nM in each case.
In the case of `C#Cc1cnc2nc1N[C@H](C)CCOc1nn(C3CCOCC3)c(C)c1N2` [E401, (11R)-14-Ethynyl-4,11-dimethyl-5-(oxan-4-yl)-8-oxa-2,5,6,12,16,17-hexaazatricyclo[11.3.1.0^3,7]heptadeca-1(16),3,6,13(17),14-pentaene], the IC50 in assay [1] and in assay [2] was ≤ 100 nM each time.
With `Cc1c2c(nn1C(C)(C)C#N)OCCCNc1nc(ncc1Cl)N2` [E191, 2-{14-Chloro-4-methyl-8-oxa-2,5,6,12,16,17-hexaazatricyclo [11.3.1.0^3,7]heptadeca-1(16),3,6,13(17),14-pentaen-5-yl}-2-methylpropanenitrile], the half-inhibitory concentration (IC50) in assay [1] and in assay [2] was ≤ 100 nM throughout.
Consider `Cc1c2c(nn1C1CCOCC1)OCCCNc1nc(ncc1C(C)C)N2` [E428, 4-Methyl-5-(oxan-4-yl)-14-(propan-2-yl)-8-oxa-2,5,6,12,16,17-hexaazatricyclo[11.3.1.0^3,7]heptadeca-1(16),3,6,13(17),14-pentaene], for which the values for the IC50 in assay [1] and in assay [2] were ≤ 10000 nM and > 10000 nM, respectively.
As for `Cc1c2c(nn1C1COCCC1(F)F)OCCCNc1nc(ncc1Cl)N2` (racemic) [E364, 14-Chloro-5-(4,4-difluorooxan-3-yl)-4-methyl-8-oxa-2,5,6,12,16,17-hexaazatricyclo[11.3.1.0^3,7]heptadeca-1(16),3,6,13(17),14-pentaene], the IC50 in assay [1] and in assay [2] was ≤ 100 nM each time.
With `Cc1c2c(nn1C1COCCC1(F)F)OCC[C@@H](C)Nc1nc(ncc1Cl)N2` (single isomer, unassigned) [E305], the IC50 in assay [1] and in assay [2] was ≤ 100 nM each time.
On to `COCC1CCOc2nn(C3CCOCC3)c(C)c2Nc2ncc(Cl)c(n2)N1` (single isomer, unassigned) [E35, 14-chloro-11-(methoxymethyl)-4-methyl-5-(oxan-4-yl)-8-oxa-2,5,6, 12,16,17-hexaazatricyclo-[11.3.1.0^3,7]heptadeca-1(16),3,6,13(17),14-pentaene], for which the IC50 in assay [1] and in assay [2] was ≤ 100 nM each time.
Take `Cc1c2c(nn1C1CC(N3C[C@@H]4C[C@H]3CO4)C1)OCCCNc1nc(ncc1Cl)N2` (stereo partly drawn) [E311, 14-Chloro-4-methyl-5-{3-[(1S,4S)-2-oxa-5-azabicyclo[2.2.1]heptan-5-yl]-cyclobutyl}-8-oxa-2,5,6,12,16,17-hexaazatricyclo [11.3.1.0^3,7]heptadeca-1(16),3,6,13(17),14-pentaene]: the IC50 in assay [1] and in assay [2] was ≤ 100 nM in each case.
For the compound `Cc1c2c(nn1C1CCOCC1)OCCCCNc1nc(ncc1Cl)N2` [E109, 15-Chloro-4-methyl-5-(oxan-4-yl)-8-oxa-2,5,6,13,17,18-hexaaza tricyclo[12.3.1.0^3,7]octadeca-1(17),3,6,14(18),15-pentaene], the IC50 in assay [1] and in assay [2] was ≤ 100 nM throughout.
